According to US5891717A, “Methods and compositions for inhibiting hexokinase” (priority 1996, dated 1999):

Columns and labels:
[1] = target: T1, native hexokinase I, overexpressed (Rattus norvegicus, UniProt P05708); details: typically seen (Becker et al., 1994; 1996); cited from earlier work
T1 sequence (P05708 1-918): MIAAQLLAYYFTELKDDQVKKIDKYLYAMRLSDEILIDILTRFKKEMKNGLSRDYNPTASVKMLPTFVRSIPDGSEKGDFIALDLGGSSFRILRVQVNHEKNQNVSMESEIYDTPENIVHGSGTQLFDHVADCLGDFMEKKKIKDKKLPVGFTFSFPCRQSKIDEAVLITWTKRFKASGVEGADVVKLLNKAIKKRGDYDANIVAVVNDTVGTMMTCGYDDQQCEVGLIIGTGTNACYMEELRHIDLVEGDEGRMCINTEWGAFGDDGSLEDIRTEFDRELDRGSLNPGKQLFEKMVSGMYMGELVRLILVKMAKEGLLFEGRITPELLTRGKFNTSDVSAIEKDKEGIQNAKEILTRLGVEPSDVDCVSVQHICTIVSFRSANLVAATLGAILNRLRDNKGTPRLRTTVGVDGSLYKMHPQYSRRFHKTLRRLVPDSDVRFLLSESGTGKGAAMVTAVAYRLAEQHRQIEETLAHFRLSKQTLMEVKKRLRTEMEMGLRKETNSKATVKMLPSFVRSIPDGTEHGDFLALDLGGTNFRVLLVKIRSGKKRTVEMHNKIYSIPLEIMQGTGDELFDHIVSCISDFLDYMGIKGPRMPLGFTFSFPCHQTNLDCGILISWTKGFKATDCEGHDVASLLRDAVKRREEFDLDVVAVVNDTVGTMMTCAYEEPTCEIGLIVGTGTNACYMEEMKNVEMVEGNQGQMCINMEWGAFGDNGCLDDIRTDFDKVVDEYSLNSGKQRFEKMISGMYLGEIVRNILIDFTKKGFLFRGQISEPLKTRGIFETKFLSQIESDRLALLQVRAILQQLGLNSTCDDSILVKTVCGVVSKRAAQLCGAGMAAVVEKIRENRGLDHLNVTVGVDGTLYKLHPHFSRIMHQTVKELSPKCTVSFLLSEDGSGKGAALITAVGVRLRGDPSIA

[2] = target: T2, native (wild type) islet glucokinase, overexpressed (Rattus norvegicus, UniProt P17712); assay: Glucose phosphorylating activity in extracts of transiently transfected 293 cells, with and without G6P; format: biochemical; details: 10 mM G6P, 293 cell extracts
T2 construct: Plasmids containing DNA encoding either intact islet glucokinase, hexokinase I; expressed in transfected cells; host or cells: human embryonic kidney 293 cells, crude extract
T2 sequence (P17712 1-465): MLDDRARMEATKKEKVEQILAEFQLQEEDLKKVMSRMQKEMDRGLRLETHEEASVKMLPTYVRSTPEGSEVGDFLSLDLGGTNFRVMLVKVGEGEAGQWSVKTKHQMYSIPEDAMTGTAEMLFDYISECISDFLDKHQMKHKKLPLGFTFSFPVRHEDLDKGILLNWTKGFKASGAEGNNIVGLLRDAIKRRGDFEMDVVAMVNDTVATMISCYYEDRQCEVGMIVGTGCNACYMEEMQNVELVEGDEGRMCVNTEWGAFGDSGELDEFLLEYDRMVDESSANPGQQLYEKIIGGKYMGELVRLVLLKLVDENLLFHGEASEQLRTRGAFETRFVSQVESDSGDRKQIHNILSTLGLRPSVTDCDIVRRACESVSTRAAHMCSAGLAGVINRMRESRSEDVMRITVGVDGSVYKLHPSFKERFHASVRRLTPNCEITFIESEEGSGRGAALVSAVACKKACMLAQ
Procedure: Plasmids containing DNA encoding either intact islet glucokinase, hexokinase I or one of the two hexokinase/glucokinase chimeras were introduced into the human embryonic kidney cell line 293, using Ca2 PO4 co-precipitation. After incubation with the plasmid DNA, cells were cultured for an additional 48 hours. Cells were harvested and crude extracts prepared for assay of glucose phosphorylating activity, using a radioisotopic assay that monitors conversion of U-^14 C glucose to U^14 C glucose-6-phosphate. The extract buffer and assay procedure have previously been described in detail (Kuwajima, et al., 1986; Becker, et al., 1994; each incorporated herein by reference).
Assays were performed at 3 and 20 mM glucose. At the lower glucose concentration, hexokinase activity is maximal while glucokinase activity is very low. At the higher concentration, glucokinase activity is increased to near maximal. The assay was also performed in the presence and absence of 10 mM unlabeled glucose-6-phosphate (G6P). In the presence of G6P, low Km hexokinases are inhibited, but glucokinase is not.

[3] = target: low Km hexokinases I, II and III (HKI-III); details: cited from earlier work
[4] = target: glucokinase (GK, hexokinase IV); details: cited from earlier work
[5] = target: T3, HK-liverGK chimera: N-terminal 455 amino acids of rat hexokinase I fused to rat liver glucokinase, SEQ ID NO:9 (DNA SEQ ID NO:8) (Rattus norvegicus, UniProt P17712); assay: Glucose phosphorylating activity in extracts of transiently transfected 293 cells, with and without G6P; format: biochemical; details: 10 mM G6P, 20 mM glucose, 293 cell extracts
T3 construct: expressed in transfected cells; host or cells: human embryonic kidney 293 cells, crude extract
T3 sequence (P17712 with tags, fused parts or gaps isoform P17712-3): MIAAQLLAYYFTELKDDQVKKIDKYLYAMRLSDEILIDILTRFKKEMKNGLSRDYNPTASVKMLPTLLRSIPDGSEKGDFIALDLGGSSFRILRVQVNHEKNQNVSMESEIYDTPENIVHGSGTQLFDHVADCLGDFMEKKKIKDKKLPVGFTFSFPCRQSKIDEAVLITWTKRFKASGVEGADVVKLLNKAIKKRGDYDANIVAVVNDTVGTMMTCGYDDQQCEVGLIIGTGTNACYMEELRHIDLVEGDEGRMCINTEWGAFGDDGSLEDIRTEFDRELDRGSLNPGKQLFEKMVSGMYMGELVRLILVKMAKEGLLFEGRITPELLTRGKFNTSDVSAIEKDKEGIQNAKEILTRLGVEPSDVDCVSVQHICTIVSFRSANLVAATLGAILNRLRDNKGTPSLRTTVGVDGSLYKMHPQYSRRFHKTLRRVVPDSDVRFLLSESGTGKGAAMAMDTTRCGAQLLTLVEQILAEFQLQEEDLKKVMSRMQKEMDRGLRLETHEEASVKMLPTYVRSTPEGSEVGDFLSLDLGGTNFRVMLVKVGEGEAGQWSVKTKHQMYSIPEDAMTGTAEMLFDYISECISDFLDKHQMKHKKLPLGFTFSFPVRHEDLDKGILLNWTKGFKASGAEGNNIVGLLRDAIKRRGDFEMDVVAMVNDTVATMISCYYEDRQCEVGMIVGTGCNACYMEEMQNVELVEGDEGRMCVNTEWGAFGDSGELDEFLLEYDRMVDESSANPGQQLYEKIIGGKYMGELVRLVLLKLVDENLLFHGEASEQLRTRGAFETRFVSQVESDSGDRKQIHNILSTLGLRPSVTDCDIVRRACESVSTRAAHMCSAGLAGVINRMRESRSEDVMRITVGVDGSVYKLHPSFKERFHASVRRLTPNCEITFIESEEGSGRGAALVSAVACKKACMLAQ
Source text: (§1) For transient transfection studies, cDNAs encoding chimeric hexokinase/glucokinase proteins consisting of the N-terminal domain of hexokinase I (amino acids 1-455) linked in frame to either the full length liver isoform of glucokinase (HK-liverGK, SEQ ID NO:8) or the islet isoform of glucokinase (HK-isletGK, SEQ ID NO:11) were cloned into pAC.CMVpLpA.
(§2) Plasmids containing DNA encoding either intact islet glucokinase, hexokinase I or one of the two hexokinase/glucokinase chimeras were introduced into the human embryonic kidney cell line 293, using Ca2 PO4 co-precipitation. After incubation with the plasmid DNA, cells were cultured for an additional 48 hours. Cells were harvested and crude extracts prepared for assay of glucose phosphorylating activity, using a radioisotopic assay that monitors conversion of U-^14 C glucose to U^14 C glucose-6-phosphate.
(§3) Assays were performed at 3 and 20 mM glucose. At the lower glucose concentration, hexokinase activity is maximal while glucokinase activity is very low. […] The assay was also performed in the presence and absence of 10 mM unlabeled glucose-6-phosphate (G6P).

[6] = target: T4, HK-isletGK chimera: N-terminal 455 amino acids of rat hexokinase I fused to rat islet glucokinase, SEQ ID NO:12 (DNA SEQ ID NO:11) (Rattus norvegicus, UniProt P17712); assay: as above; format: biochemical; details: 10 mM G6P, 20 mM glucose, 293 cell extracts
T4 construct: expressed in transfected cells; host or cells: human embryonic kidney 293 cells, crude extract
T4 sequence (P17712 with tags, fused parts or gaps): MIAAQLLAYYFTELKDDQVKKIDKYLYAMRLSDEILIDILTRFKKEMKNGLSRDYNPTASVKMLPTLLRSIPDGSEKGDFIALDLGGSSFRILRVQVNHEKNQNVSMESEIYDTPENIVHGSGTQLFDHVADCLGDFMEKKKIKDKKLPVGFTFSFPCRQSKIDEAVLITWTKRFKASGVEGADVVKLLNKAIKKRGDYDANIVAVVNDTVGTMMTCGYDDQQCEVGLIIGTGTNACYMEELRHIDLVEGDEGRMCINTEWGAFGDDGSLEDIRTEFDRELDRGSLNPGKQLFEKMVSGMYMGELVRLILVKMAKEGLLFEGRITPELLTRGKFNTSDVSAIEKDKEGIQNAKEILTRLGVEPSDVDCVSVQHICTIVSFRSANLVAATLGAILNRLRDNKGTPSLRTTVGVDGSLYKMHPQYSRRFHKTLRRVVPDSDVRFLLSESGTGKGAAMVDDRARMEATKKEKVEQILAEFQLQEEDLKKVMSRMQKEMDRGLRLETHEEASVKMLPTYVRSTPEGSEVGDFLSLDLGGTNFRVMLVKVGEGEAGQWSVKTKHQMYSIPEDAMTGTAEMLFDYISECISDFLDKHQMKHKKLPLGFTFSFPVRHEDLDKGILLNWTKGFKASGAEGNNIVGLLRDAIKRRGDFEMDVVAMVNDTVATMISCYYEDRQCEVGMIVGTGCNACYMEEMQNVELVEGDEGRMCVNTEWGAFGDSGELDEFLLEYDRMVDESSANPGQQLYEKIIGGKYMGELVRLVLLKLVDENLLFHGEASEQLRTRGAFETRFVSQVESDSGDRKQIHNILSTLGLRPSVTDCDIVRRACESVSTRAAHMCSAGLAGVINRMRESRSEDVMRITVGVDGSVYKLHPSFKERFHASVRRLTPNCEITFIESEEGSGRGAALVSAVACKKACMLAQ
Source text: as §1, §2, §3

[7] = running text (Wilson, 1985), read-out: Km for glucose

SMILES | inhibition of glucose phosphorylating activity by G6P [1] | effect of glucose-6-phosphate on glucose phosphorylating activity [2] | Ki ([3]; Table 1, HKI-III, read-out: Ki G-6-P) | Ki ([4]; Table 1, GK, read-out: Ki G-6-P) | glucose-6-phosphate concentration required for appreciable inhibition [4] | inhibition of glucose phosphorylating activity by G6P [5] | inhibition of glucose phosphorylating activity by G6P [6] | Km [3, 7] | Km [4, 7]
O=P(O)(O)OC[C@H]1OC(O)[C@H](O)[C@@H](O)[C@@H]1O (stereo partly drawn) [glucose-6-phosphate] | 90% | no significant effect | 0.2 to 0.9 mM | 60 mM | > 10 mM | approximately 20% | approximately 40% | – | –
OC[C@H]1OC(O)[C@H](O)[C@@H](O)[C@@H]1O (stereo partly drawn) [glucose] | – | – | – | – | – | – | – | 0.01 to 0.05 mM | 6 to 8 mM
